For the assay, the system named is genotype 1b (Con-1) HCV replicon. The assay can be described thus: HCV Replicon Luciferase Assay. In kind it is cell-based. The conditions noted are these: Hepatitis C virus, 72 h, Huh-7 genotype 1b replicon, Renilla luciferase, 3 days incubation. Here is the method: The cell lines used to evaluate compounds consist of a human hepatocyte derived cell line (Huh-7) that constitutively expresses a genotype 1b (Con-1) HCV replicon or a genotype 1b (Con-1) HCV replicon with an asparagine replacing the cysteine at amino acid 316, or a genotype 2a (JFH-1) replicon, containing a Renilla luciferase reporter gene. These cells were maintained in Dulbecco's modified Eagle medium (DMEM) containing 10% FBS, 100 U/mL penicillin/streptomycin and 1.0 mg/mL G418.
To evaluate compound efficacy, titrated compounds were transferred to sterile 384-well tissue culture treated plates, and the plates were seeded with HCV replicon cells (50 μL at a density of 2.4×10^3 cells/well) in DMEM containing 4% FBS (final DMSO concentration at 0.5%). After 3 days incubation at 37° C., cells were analyzed for Renilla Luciferase activity using the EnduRen substrate (Promega cat #E6485) according to the manufacturer's directions. Briefly, the EnduRen substrate was diluted in DMEM and then added to the plates to a final concentration of 7.5 μM. The plates were incubated for at least 1 h at 37° C. then read on a Viewlux Imager (PerkinElmer) using a luminescence program. The 50% effective concentration (EC50) was calculated using the four-parameter logistic Formula noted above.
Compound EC50 data is expressed as A: <100 nM; B=100-1000 nM; C>1000 nM).

Read-outs that look alike come from different tables or passages of the source.

Regarding `CNC(=O)c1c(-c2ccc(F)cc2)oc2cc(N(CC#N)S(C)(=O)=O)c(-c3cccc(C(=O)OC)c3)cc12` [Compound 1001], the EC50 was less than 0.1 µM (read-out: EC50 1b (class)) and 0.0578 µM (read-out: EC50 (uM) 1b).

For `CNC(=O)c1c(-c2ccc(F)cc2)oc2cc(N(CC#N)S(C)(=O)=O)c(-c3cccc(C(=O)NC(C)(C)C(F)(F)F)c3)cc12` [Compound 1002], the EC50 (read-out: EC50 1b (class)) was less than 0.1 µM.

Consider `CNC(=O)c1c(-c2ccc(F)cc2)oc2cc(N(CC3CC3)S(C)(=O)=O)c(-c3cccc(C(=O)OC)c3)cc12` [Compound 2001], for which, where the note is “read-out: EC50 1b (class)”, the EC50 was less than 0.1 µM.

In the case of `CNC(=O)c1c(-c2ccc(F)cc2)oc2cc(N(CC3CC3)S(C)(=O)=O)c(-c3cccc(C(=O)O)c3)cc12` [Compound 2002], the EC50 (read-out: EC50 1b (class)) is greater than 1 µM and the EC50 (read-out: EC50 (uM) 1b) stood at 7.55 µM.

Turning to `CNC(=O)c1c(-c2ccc(F)cc2)oc2cc(N(CC3CC3)S(C)(=O)=O)c(-c3cccc(C(=O)NC(C)(C)C(F)(F)F)c3)cc12` [Compound 2003], the 50% effective concentration (EC50) (read-out: EC50 1b (class)) is less than 0.1 µM.

Take `CNC(=O)c1c(-c2ccc(F)cc2)oc2cc(N(CC3CC3)S(C)(=O)=O)c(-c3cccc(C(=O)NC(CF)(CF)CF)c3)cc12` [Compound 2004]: the EC50 (read-out: EC50 1b (class)) was less than 0.1 µM.

As for `CNC(=O)c1c(-c2ccc(F)cc2)oc2cc(N(CC3CC3)S(C)(=O)=O)c(-c3cccc(C(=O)NC(C)(C)C#N)c3)cc12` [Compound 2005], the EC50 by setting is: (read-out: EC50 1b (class)) less than 0.1 µM; (read-out: EC50 (uM) 1b) 0.0147 µM.

For the compound `[2H]C([2H])([2H])C(NC(=O)c1cccc(-c2cc3c(C(=O)NC)c(-c4ccc(F)cc4)oc3cc2N(CC2CC2)S(C)(=O)=O)c1)(C([2H])([2H])[2H])C([2H])([2H])[2H]` [Compound 2006], the 50% effective concentration (EC50) (read-out: EC50 1b (class)) is less than 0.1 µM.

On to `CNC(=O)c1c(-c2ccc(F)cc2)oc2cc(N(CCF)S(C)(=O)=O)c(-c3cccc(C(=O)NC(C)(C)C(F)(F)F)c3)cc12` [Compound 3003], for which the EC50 (read-out: EC50 1b (class)) is less than 0.1 µM.

`CNC(=O)c1c(-c2ccc(F)cc2)oc2cc(N(CCF)S(C)(=O)=O)c(-c3cccc(C(=O)NC(CF)(CF)CF)c3)cc12` [Compound 3004]: the EC50 (read-out: EC50 1b (class)) was less than 0.1 µM.

On to `CNC(=O)c1c(-c2ccc(F)cc2)oc2cc(N(CCF)S(C)(=O)=O)c(-c3cccc(C(=O)NC(C)(C)C#N)c3)cc12` [Compound 3005], for which the EC50 was less than 0.1 µM (read-out: EC50 1b (class)) and 0.005 µM (read-out: EC50 (uM) 1b).

`[2H]C([2H])([2H])C(NC(=O)c1cccc(-c2cc3c(C(=O)NC)c(-c4ccc(F)cc4)oc3cc2N(CCF)S(C)(=O)=O)c1)(C([2H])([2H])[2H])C([2H])([2H])[2H]` [Compound 3006]: the EC50 (read-out: EC50 1b (class)) was less than 0.1 µM.

For the compound `CC[C@@H](NC(=O)c1cccc(-c2cc3c(C(=O)NC)c(-c4ccc(F)cc4)oc3cc2N(CCF)S(C)(=O)=O)c1)C1CC1` [Compound 3007], the EC50 (read-out: EC50 1b (class)) is less than 0.1 µM and the EC50 (read-out: EC50 (uM) 1b) was 0.0057 µM.

With `CC[C@H](NC(=O)c1cccc(-c2cc3c(C(=O)NC)c(-c4ccc(F)cc4)oc3cc2N(CCF)S(C)(=O)=O)c1)C1CC1` [Compound 3008], the EC50 (read-out: EC50 1b (class)) was less than 0.1 µM.

For `CNC(=O)c1c(-c2ccc(F)cc2)oc2cc(N(CCF)S(C)(=O)=O)c(-c3cccc(C(=O)N[C@@H](C)C4CC4)c3)cc12` [Compound 3009], for the setting “read-out: EC50 1b (class)”, the EC50 is less than 0.1 µM.

For the compound `CNC(=O)c1c(-c2ccc(F)cc2)oc2cc(N(CCF)S(C)(=O)=O)c(-c3cccc(C(=O)NC(C4CC4)C4CC4)c3)cc12` [Compound 3010], the EC50 is less than 0.1 µM (read-out: EC50 1b (class)) and 0.0056 µM (read-out: EC50 (uM) 1b).

Take `CNC(=O)c1c(-c2ccc(F)cc2)oc2cc(N(CCF)S(C)(=O)=O)c(-c3cccc(C(=O)NC4(C#N)CC4)c3)cc12` [Compound 3011]: the EC50 (read-out: EC50 1b (class)) was less than 0.1 µM.

Take `CNC(=O)c1c(-c2ccc(F)cc2)oc2cc(N(CCF)S(C)(=O)=O)c(-c3cccc(C(=O)NCC(F)(F)C(F)(F)F)c3)cc12` [Compound 3012]: the EC50 reads like this: (read-out: EC50 1b (class)) less than 0.1 µM; (read-out: EC50 (uM) 1b) 0.0032 µM.

For the compound `CNC(=O)c1c(-c2ccc(F)cc2)oc2cc(N(CCF)S(C)(=O)=O)c(-c3cccc(C(=O)NC(C)(C)CF)c3)cc12` [Compound 3013], the 50% effective concentration (EC50) (read-out: EC50 1b (class)) was less than 0.1 µM.

Take `CNC(=O)c1c(-c2ccc(F)cc2)oc2cc(N(CCF)S(C)(=O)=O)c(-c3cccc(C(=O)NC(C)(C)C(=O)OC)c3)cc12` [Compound 3014]: the EC50 (read-out: EC50 1b (class)) is less than 0.1 µM.

Consider `CNC(=O)c1c(-c2ccc(F)cc2)oc2cc(N(CCF)S(C)(=O)=O)c(-c3cccc(C(=O)NCC(C)(C)C)c3)cc12` [Compound 3015], for which the EC50 (read-out: EC50 1b (class)) was less than 0.1 µM.

With `CNC(=O)c1c(-c2ccc(F)cc2)oc2cc(N(CCF)S(C)(=O)=O)c(-c3cccc(C(=O)NC(C)(C)C)c3)cc12` [Compound 3016], for the setting “read-out: EC50 1b (class)”, the EC50 is less than 0.1 µM.

Regarding `CNC(=O)c1c(-c2ccc(F)cc2)oc2cc(N(CCF)S(C)(=O)=O)c(-c3cccc(C(=O)N4CCC(C)(C)C4)c3)cc12` [Compound 3017], the half-maximal effective concentration (EC50) is less than 0.1 µM (read-out: EC50 1b (class)) and 0.0063 µM (read-out: EC50 (uM) 1b).

Regarding `CNC(=O)c1c(-c2ccc(F)cc2)oc2cc(N(CCF)S(C)(=O)=O)c(-c3cccc(C(=O)N4CCCC4c4ccc(Cl)cc4)c3)cc12` (centres unmarked) [Compound 3018], the concentration giving a half-maximal response (EC50) (read-out: EC50 1b (class)) is less than 0.1 µM.

As to `CNC(=O)c1c(-c2ccc(F)cc2)oc2cc(N(CCF)S(C)(=O)=O)c(-c3cccc(C(=O)N4CCN(C)CC4c4ccccc4)c3)cc12` (centres unmarked) [Compound 3019], the EC50 (read-out: EC50 1b (class)) was less than 0.1 µM.

In the case of `CNC(=O)c1c(-c2ccc(F)cc2)oc2cc(N(CCF)S(C)(=O)=O)c(-c3cccc(C(=O)N4CCN(c5ccc(Cl)cc5)CC4)c3)cc12` [Compound 3020], the EC50 is less than 0.1 µM (read-out: EC50 1b (class)) and 0.0094 µM (read-out: EC50 (uM) 1b).

In the case of `CNC(=O)c1c(-c2ccc(F)cc2)oc2cc(N(CCF)S(C)(=O)=O)c(-c3cccc(C(=O)N[C@H](C)C(F)(F)F)c3)cc12` [Compound 3021], the EC50 (read-out: EC50 1b (class)) is less than 0.1 µM.

Take `CNC(=O)c1c(-c2ccc(F)cc2)oc2cc(N(CCF)S(C)(=O)=O)c(-c3cccc(C(=O)N4CCCC4c4cccnc4)c3)cc12` (centres unmarked) [Compound 3022]: where the note is “read-out: EC50 1b (class)”, the half-maximal effective concentration (EC50) was less than 0.1 µM.

`CNC(=O)c1c(-c2ccc(F)cc2)oc2cc(N(CCF)S(C)(=O)=O)c(-c3cccc(C(=O)N4[C@H](C)CC[C@H]4C)c3)cc12` [Compound 3023]: the EC50 (read-out: EC50 1b (class)) was less than 0.1 µM.

For `CNC(=O)c1c(-c2ccc(F)cc2)oc2cc(N(CCF)S(C)(=O)=O)c(-c3cccc(C(=O)N4CCCC4C)c3)cc12` (centres unmarked) [Compound 3024], the EC50 (read-out: EC50 1b (class)) is less than 0.1 µM.

On to `CNC(=O)c1c(-c2ccc(F)cc2)oc2cc(N(CCF)S(C)(=O)=O)c(-c3cccc(C(=O)N4CCN(c5ccccc5)CC4)c3)cc12` [Compound 3025], for which the EC50 (read-out: EC50 1b (class)) was less than 0.1 µM.

Turning to `CNC(=O)c1c(-c2ccc(F)cc2)oc2cc(N(CCF)S(C)(=O)=O)c(-c3cccc(C(=O)N4[C@@H](COC)CC[C@@H]4COC)c3)cc12` [Compound 3026], the EC50 is, setting by setting: (read-out: EC50 1b (class)) 0.1 to 1 µM; (read-out: EC50 (uM) 1b) 0.332 µM.

For the compound `CCC1CCCN1C(=O)c1cccc(-c2cc3c(C(=O)NC)c(-c4ccc(F)cc4)oc3cc2N(CCF)S(C)(=O)=O)c1` (centres unmarked) [Compound 3027], the half-maximal effective concentration (EC50) (read-out: EC50 1b (class)) was less than 0.1 µM.

In the case of `CNC(=O)c1c(-c2ccc(F)cc2)oc2cc(N(CCF)S(C)(=O)=O)c(-c3cccc(C(=O)N4CCN(C(=O)OC(C)(C)C)CC4)c3)cc12` [Compound 3028], the EC50 (read-out: EC50 1b (class)) was less than 0.1 µM.

Take `CNC(=O)c1c(-c2ccc(F)cc2)oc2cc(N(CCF)S(C)(=O)=O)c(-c3cccc(C(=O)N4CCC[C@H]4C(=O)OC(C)(C)C)c3)cc12` [Compound 3029]: the half-maximal effective concentration (EC50) (read-out: EC50 1b (class)) is less than 0.1 µM.

`CNC(=O)c1c(-c2ccc(F)cc2)oc2cc(N(CCF)S(C)(=O)=O)c(-c3cccc(C(=O)N4CCC[C@@H]4CO)c3)cc12` [Compound 3030]: the EC50 runs as follows: (read-out: EC50 1b (class)) 0.1 to 1 µM; (read-out: EC50 (uM) 1b) 0.139 µM.

For the origin of these results see patent US10125111B2, “Benzofuran compounds for the treatment of hepatitis C” (BRISTOL-MYERS SQUIBB COMPANY, priority 2015, dated 2018).
